Test results reported in ChEMBL document CHEMBL4699511, “Cedrol, a Sesquiterpene Alcohol, Enhances the Anticancer Efficacy of Temozolomide in Attenuating Drug Resistance via Regulation of the DNA Damage Response and MGMT Expression” (J Nat Prod, 2020).
The source made the active and inactive calls. The rule behind the calls is not given here.

Experiments:
DBTRG-05MG [1] = assay: Induction of cell cycle arrest in human DBTRG-05MG cells assessed as accumulation at G2/M phase at 206 uM after 48 hrs by propidium iodide staining based flow cytometric analysis (reference value: 30.08 +/- 0.1%); format: functional
RG2 [2] = assay: Induction of cell cycle arrest in rat RG2 cells assessed as accumulation at G0/G1 phase at 206 uM after 24 hrs by propidium iodide staining based flow cytometric analysis (reference value: 57.81 +/- 1.9%); format: functional
DBTRG-05MG [3] = assay: Induction of cell cycle arrest in human DBTRG-05MG cells assessed as p53 expression at 206 uM after 48 hrs by Western blot analysis (reference value: 1); format: functional
DBTRG-05MG [4] = assay: Induction of cell cycle arrest in human DBTRG-05MG cells assessed as p21 expression at 206 uM after 48 hrs by Western blot analysis (reference value: 1); format: functional
RG2 [5] = assay: Inhibition of AKT phosphorylation at S473 residues in rat RG2 cells at 206 uM after 48 hrs by Western blot analysis; format: cell-based
[6] = Effect on JNK expression in rat RG2 cells at 206 uM after 48 hrs by Western blot analysis (reference value: 1); format: functional
RG2 [7] = assay: Inhibition of JNK phosphorylation at Thr183/Tyr185 residues in rat RG2 cells at 206 uM after 48 hrs by Western blot analysis (reference value: 1); format: cell-based
DBTRG-05MG [8] = assay: Induction of apoptosis in human DBTRG-05MG cells assessed as increase in DNA fragmentation at 206 uM after 48 hrs by TUNEL assay; format: functional, cell-based
DBTRG-05MG [9] = assay: Induction of apoptosis in human DBTRG-05MG cells assessed as increase in apoptotic body formation at 206 uM after 48 hrs by TUNEL assay; format: functional, cell-based
DBTRG-05MG [10] = assay: Induction of apoptosis in human DBTRG-05MG cells assessed as cleaved PARP expression at 206 uM after 48 hrs by Western blot analysis (reference value: 1); format: functional
DBTRG-05MG [11] = assay: Induction of DNA damage in human DBTRG-05MG cells assessed as Chk1 phosphorylation at ser345 residues at 206 uM after 48 hrs by Western blot analysis (reference value: 1); format: functional
DBTRG-05MG [12] = assay: Induction of DNA damage in human DBTRG-05MG cells assessed as H2A.X phosphorylation at ser139 residues at 206 uM after 48 hrs by Western blot analysis (reference value: 1); format: functional
DBTRG-05MG [13] = assay: Synergistic cytotoxicity against human DBTRG-05MG cells assessed as synergistic effect index at 89.9 uM after 48 hrs in presence of 206 uM TMZ by MTT assay; format: functional
DBTRG-05MG [14] = assay: Synergistic cytotoxicity against human DBTRG-05MG cells assessed as synergistic effect index at 112.4 uM after 48 hrs in presence of 103 uM TMZ by MTT assay; format: functional
DBTRG-05MG [15] = assay: Synergistic cytotoxicity against human DBTRG-05MG cells assessed as synergistic effect index at 134.9 uM after 48 hrs in presence of 515.1 uM TMZ by MTT assay; format: functional
RG2 [16] = assay: Synergistic cytotoxicity against rat RG2 cells assessed as synergistic effect index at 89.9 uM after 48 hrs in presence of 309 uM TMZ by MTT assay; format: functional
[17] = Synergistic cytotoxicity against rat CTX TNA2 cells assessed as synergistic effect index at 112.4 uM after 48 hrs in presence of 206 uM TMZ by MTT assay; format: cell-based; conditions: ctx tna2, 48 h
[18] = Synergistic cytotoxicity against rat CTX TNA2 cells assessed as combination index at 134.9 uM after 48 hrs in presence of 309 uM TMZ by MTT assay; format: cell-based; conditions: ctx tna2, 48 h
DBTRG-05MG [19] = assay: Induction of cell cycle arrest in human DBTRG-05MG cells assessed as accumulation at G2/M phase at 112.4 uM after 6 hrs by propidium iodide staining based flow cytometric analysis (reference value: 30.08 +/- 0.1%); format: functional
DBTRG-05MG [20] = assay: Induction of cell cycle arrest in human DBTRG-05MG cells assessed as accumulation at G0/G1 phase at 112.4 uM after 12 hrs in presence of TMZ by propidium iodide staining based flow cytometric analysis (reference value: 47.16 +/- 1.55%); format: functional
DBTRG-05MG [21] = assay: Induction of cell cycle arrest in human DBTRG-05MG cells assessed as accumulation at G2/M phase at 112.4 uM after 48 hrs by propidium iodide staining based flow cytometric analysis (reference value: 30.08 +/- 0.1%); format: functional
RG2 [22] = assay: Induction of cell cycle arrest in rat RG2 cells assessed as accumulation at G2/M phase at 112.4 uM after 6 hrs by propidium iodide staining based flow cytometric analysis (reference value: 20.04 +/- 0.55%); format: functional
RG2 [23] = assay: Induction of cell cycle arrest in rat RG2 cells assessed as accumulation at G0/G1 phase at 112.4 uM after 24 hrs by propidium iodide staining based flow cytometric analysis (reference value: 57.81 +/- 1.9%); format: functional
RG2 [24] = assay: Induction of cell cycle arrest in rat RG2 cells assessed as accumulation at G0/G1 phase at 112.4 uM after 48 hrs by propidium iodide staining based flow cytometric analysis (reference value: 57.81 +/- 1.9%); format: functional
RG2 [25] = assay: Induction of cell cycle arrest in rat RG2 cells assessed as accumulation at G2/M phase at 112.4 uM after 48 hrs by propidium iodide staining based flow cytometric analysis (reference value: 20.04 +/- 0.55%); format: functional
RG2 [26] = assay: Induction of cell cycle arrest in rat RG2 cells assessed as accumulation at G0/G1 phase at 112.4 uM after 48 hrs in presence of TMZ by propidium iodide staining based flow cytometric analysis (reference value: 57.81 +/- 1.9%); format: functional
RG2 [27] = assay: Induction of cell cycle arrest in rat RG2 cells assessed as accumulation at G2/M phase at 112.4 uM after 48 hrs in presence of TMZ by propidium iodide staining based flow cytometric analysis (reference value: 20.04 +/- 0.55%); format: functional
DBTRG-05MG [28] = assay: Induction of cell cycle arrest in human DBTRG-05MG cells assessed as CyclinB1 expression at 112.4 uM after 48 hrs in presence of TMZ by Western blot analysis (reference value: 1); format: functional
RG2 [29] = assay: Induction of cell cycle arrest in rat RG2 cells assessed as CyclinA expression at 112.4 uM after 48 hrs by Western blot analysis (reference value: 1); format: functional
RG2 [30] = assay: Induction of cell cycle arrest in rat RG2 cells assessed as CDK4 expression at 112.4 uM after 48 hrs in presence of TMZ by Western blot analysis (reference value: 1); format: functional
[31] = Effect on p38 expression in rat RG2 cells at 112.4uM after 48 hrs by Western blot analysis (reference value: 1); format: functional
DBTRG-05MG [32] = assay: Induction of DNA damage in human DBTRG-05MG cells at 112.4 uM after 48 hrs in presence of TMZ by p.H2A.X staining based fluorescent immunocytochemistry method; format: functional, cell-based
DBTRG-05MG [33] = assay: Induction of DNA damage in human DBTRG-05MG cells assessed as Chk1 phosphorylation at ser345 residues at 112.4 uM after 48 hrs in presence of TMZ by Western blot analysis (reference value: 1); format: functional

Cn1nnc2c(C(N)=O)ncn2c1=O [TEMOZOLOMIDE]
Activity (DBTRG-05MG [1]): 53.64%
Activity (RG2 [2]): 52.7%
fold change (FC) (DBTRG-05MG [3]): 2
fold change (FC) (DBTRG-05MG [4]): 2.1
fold change (FC) (RG2 [5]): 0.5
fold change (FC) [6]: 1
fold change (FC) (RG2 [7]): 0.9
Activity (DBTRG-05MG [8]): Active
Activity (DBTRG-05MG [9]): Active
fold change (FC) (DBTRG-05MG [10]): 1.4
fold change (FC) (DBTRG-05MG [11]): 1
fold change (FC) (DBTRG-05MG [12]): 1

C[C@@H]1CC[C@H]2C(C)(C)[C@H]3C[C@@]12CC[C@@]3(C)O [CEDROL]
Activity_index (DBTRG-05MG [13]): 0.72
Activity_index (DBTRG-05MG [14]): 0.84
Activity_index (DBTRG-05MG [15]): 0.89
Activity_index (RG2 [16]): 0.72
Activity_index [17]: 0.4
CI [18]: 1.13
Activity (DBTRG-05MG [19]): 30.35%
Activity (DBTRG-05MG [20]): 49.57%
Activity (DBTRG-05MG [21]): 28.83%
Activity (RG2 [22]): 21.06%
Activity (RG2 [23]): 72.5%
Activity (RG2 [24]): 61.9%
Activity (RG2 [25]): 20.33%
Activity (RG2 [26]): 44%
Activity (RG2 [27]): 35.71%
fold change (FC) (DBTRG-05MG [28]): 0.7
fold change (FC) (RG2 [29]): 0.4
fold change (FC) (RG2 [30]): 0.5
fold change (FC) [31]: 0.8
Activity (DBTRG-05MG [32]): Active
fold change (FC) (DBTRG-05MG [33]): 1.4
